# Experimental data taken from PubChem BioAssay (NCI).
# Values joined by “and” are separate entries in the source; they are usually repeats but may differ in a detail not shown here. Equal values may be shown once.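 In this assay, cells in 96-well plates receive the compound at five concentrations for 48 hours. Endpoints are linearly interpolated between the surrounding concentrations. GI50 is the concentration that inhibits growth by half. TGI: total growth inhibition.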
# What was measured:
# Assay in all cases: inhibition of tumour cell growth, NCI panel, 48 h
# [1] = tested on: OVCAR-4 ovarian
# [2] = tested on: CAKI-1 renal
# [3] = tested on: HCT-15 colon
# [4] = tested on: SNB-78 CNS
# [5] = tested on: DLD-1 colon
# [6] = tested on: U251 CNS
# [7] = tested on: SK-MEL-5 melanoma
# [8] = tested on: MOLT-4 leukemia
# [9] = tested on: KM12 colon
# [10] = tested on: SK-MEL-2 melanoma
Compound,TGI [1],TGI [2],TGI [3],TGI [4],TGI [5],TGI [6],TGI [7],TGI [8],GI50 [1],GI50 [9],TGI [9],GI50 [2],GI50 [4],GI50 [5],GI50 [6],GI50 [7],GI50 [10],TGI [10],GI50 [8],GI50 [3]
CCOC(=O)NC(=O)c1cn(CCCCCCCCCCC(=O)N2CCN(CCn3cc(C(=O)NC(=O)OCC)c(=O)[nH]c3=O)CC2)c(=O)[nH]c1=O,> 100 µM,> 100 µM,> 100 µM,> 100 µM,> 100 µM,> 100 µM,> 100 µM,> 100 µM,–,–,–,–,–,–,–,–,–,–,–,–
CCC[CH2][Sn]([CH2]CCC)([O]C(=O)c1cc(OC)c(OC)c(OC)c1)[O]C(=O)c1cc(OC)c(OC)c(OC)c1,2.9 µM,1.31 µM,–,1.58 µM,2.46 µM,2.55 µM,2.97 µM,4.11 µM,1.48 µM,1.45 µM,3.01 µM,0.3 µM,0.453 µM,1.21 µM,1.28 µM,1.49 µM,1.1 µM,2.31 µM,0.505 µM,–
CCOC(=O)/C(=C/c1cc(OC)ccc1OC)CC(=O)O,> 100 µM,> 100 µM,> 62.7 µM,> 100 µM,> 31.6 µM,> 100 µM,> 100 µM,> 31.6 µM,–,–,> 100 µM,–,–,–,–,–,–,34.5 µM,–,–
OCC1OC(n2ccc3cnccc32)CC1O (stereo not given),> 100 µM,> 100 µM,> 100 µM,> 100 µM,> 100 µM,> 100 µM,> 100 µM,> 100 µM,–,–,> 100 µM,–,–,–,–,–,–,> 100 µM,–,–
O=C1C(CN(Cc2ccccc2)Cc2ccccc2)CCCC1CN(Cc1ccccc1)Cc1ccccc1 (stereo not given),36.6 µM and > 100 µM,11.5 µM and > 100 µM,21.3 µM and > 100 µM,> 100 µM,10.4 µM and > 100 µM,> 100 µM,> 100 µM,> 100 µM,20 µM and > 79.8 µM,40.2 µM and > 100 µM,> 100 µM,–,28.1 µM and > 100 µM,–,41.7 µM and > 100 µM,–,19.6 µM and > 69.9 µM,36 µM and > 100 µM,–,14.2 µM and > 100 µM
CCCCCCCCC(=O)CCCCCCCCC(=O)O,> 100 µM,> 100 µM,–,> 100 µM,40.1 µM,> 100 µM,29.1 µM,40.2 µM,–,–,32 µM,–,–,–,–,–,–,> 100 µM,–,–
COC(=O)C1C(=O)O[C@@H](c2ccc(OC)cc2)C1C(=O)OC (stereo not given in full),> 100 µM,> 100 µM,–,–,> 100 µM,> 100 µM,> 100 µM,> 100 µM,–,–,> 100 µM,–,–,–,–,–,–,–,–,–
C=CCOC1=C2CC[C@H](O)[C@@]2(C)CCC1=O,> 100 µM,> 100 µM,> 100 µM,> 100 µM,> 100 µM,> 100 µM,> 100 µM,> 100 µM,–,–,> 100 µM,–,–,–,–,–,–,–,–,–
CC1C(=O)CCC1C(Sc1ccccc1)(Sc1ccccc1)Sc1ccccc1 (stereo not given),> 100 µM,> 100 µM,> 100 µM,> 100 µM,> 100 µM,> 100 µM,73.5 µM,37.9 µM,–,–,> 100 µM,–,–,–,–,–,–,> 100 µM,–,–
COC(=O)C1C2CC3C(OC(=O)C31)C2I (stereo not given),> 100 µM,> 100 µM,> 100 µM,> 100 µM,–,> 100 µM,> 100 µM,> 100 µM,–,–,> 100 µM,–,–,–,–,–,–,> 100 µM,–,–
COc1ccccc1/C=C1\CCC(CN(C)C)C1=O (stereo not given),19.6 µM,12 µM,7.85 µM,29.2 µM,4.98 µM,26.9 µM,30.4 µM,17.5 µM,–,–,12.4 µM,–,–,–,–,–,–,24.4 µM,–,–
O=S1Cc2ccccc2CS1 (stereo not given),30.6 µM,31.1 µM,> 100 µM,36.7 µM,33.5 µM,24.5 µM,> 100 µM,56 µM,–,–,> 100 µM,–,–,–,–,–,–,–,–,–
S=C1CNC(=S)CN1,> 100 µM,> 100 µM,> 100 µM,> 100 µM,> 100 µM,> 100 µM,> 100 µM,> 100 µM,–,–,> 100 µM,–,–,–,–,–,–,> 100 µM,–,–
Cc1ccc(NC(=O)C2C(=O)C(=O)N(c3ccc(C)cc3)C2=O)cc1 (stereo not given),> 100 µM,–,> 100 µM,> 100 µM,> 100 µM,> 100 µM,> 100 µM,> 100 µM,–,–,> 100 µM,–,–,–,–,–,–,> 100 µM,–,–
NC(Cc1cc(Br)c(O)c(Br)c1)C(=O)O (stereo not given),> 100 µM,> 100 µM,> 100 µM,–,–,> 100 µM,> 100 µM,> 100 µM,–,–,> 100 µM,–,–,–,–,–,–,> 100 µM,–,–
O=Cc1ncc(-c2ccc(C(F)(F)F)cc2)c(NC2CCCCCC2)n1,> 10 µM,> 10 µM,> 10 µM,–,–,> 10 µM,> 10 µM,> 10 µM,> 10 µM,> 10 µM,> 10 µM,> 10 µM,–,–,> 10 µM,> 10 µM,> 10 µM,> 10 µM,> 10 µM,> 10 µM
O=S(=O)(c1ccc2c(c1)C(=NO)c1cc(S(=O)(=O)N3CCCCC3)ccc1-2)N1CCCCC1,0.426 µM and 0.143 µM,> 1 µM and 0.282 µM,> 1 µM and 0.323 µM,–,–,> 1 µM and 0.344 µM,> 1 µM and 0.314 µM,0.433 µM and 0.832 µM,0.195 µM and 0.0636 µM,0.508 µM and 0.184 µM,> 1 µM and 0.356 µM,0.427 µM and 0.147 µM,–,–,> 1 µM and 0.178 µM,> 1 µM and 0.174 µM,> 1 µM and 0.176 µM,> 1 µM and 0.331 µM,0.204 µM and 0.215 µM,0.914 µM and 0.173 µM

Compound,TGI [1],TGI [2],TGI [3],TGI [4],TGI [5],TGI [6],TGI [7],TGI [8],GI50 [1],GI50 [9],TGI [9],GI50 [2],GI50 [4],GI50 [5],GI50 [6],GI50 [7],GI50 [10],TGI [10],GI50 [8],GI50 [3]
CC(/C=C/C=C/C=C/C=C/C=C/C(O)=C1/C(=O)C(CCC(=O)O)N(C)C1=O)=C\C(C)C(OC1CC(O)C(O)C(C)O1)C(C)C (stereo not given),40.1 µM,12.6 µM,19.4 µM,–,–,11.7 µM,3.85 µM,7.08 µM,–,–,3.73 µM,–,–,–,–,–,–,12.9 µM,–,–
c1ccc2c(c1)nnn1c3cnccc3nc21,96.6 µM,> 100 µM,80 µM,> 100 µM,> 100 µM,> 100 µM,> 100 µM,54.9 µM,–,–,64.8 µM,–,–,–,–,–,–,> 100 µM,–,–
COC(=O)C(=C\Sc1ccccc1)/C=C/C(=O)OC(C)(C)C,28.6 µM,12.1 µM,17.7 µM,31.9 µM,7.59 µM,27.7 µM,28.6 µM,9.44 µM,–,–,24.3 µM,–,–,–,–,–,–,24.8 µM,–,–
C[C@H]1O[C@@H](O[C@H]2[C@@H](O)C[C@H](O[C@H]3[C@@H](O)C[C@H](O[C@H]4CC[C@]5(C)C6C[C@@H](O)[C@]7(C)[C@@H](C8=CC(=O)OC8)CC[C@]7(O)C6CC[C@@H]5C4)O[C@@H]3C)O[C@@H]2C)C[C@H](O)[C@@H]1O (stereo not given in full),0.306 µM,0.261 µM,0.366 µM,–,–,0.145 µM,0.122 µM,0.147 µM,0.101 µM,0.144 µM,0.544 µM,0.0857 µM,–,–,0.0668 µM,0.0478 µM,0.121 µM,0.328 µM,0.0176 µM,0.128 µM
COc1ccc(S(=O)(=O)Nc2cc(/C=C\c3cc(OC)c(OC)c(OC)c3)cc(OC)c2OC)cc1OC,> 100 µM,> 100 µM,> 100 µM,–,–,> 100 µM,13.1 µM,> 100 µM,3.12 µM,0.639 µM,> 100 µM,0.813 µM,–,–,0.681 µM,0.488 µM,5.29 µM,> 100 µM,0.702 µM,0.671 µM
Clc1cccc(Cn2cc(Cc3cn(Cc4cccc(Cl)c4)c4ccccc34)c3ccccc32)c1,> 100 µM,> 100 µM,> 100 µM,–,–,> 100 µM,> 100 µM,> 100 µM,> 100 µM,> 100 µM,> 100 µM,> 100 µM,–,–,> 100 µM,> 100 µM,> 100 µM,> 100 µM,> 100 µM,> 100 µM
C[C@@]12CCC[C@@](C)(C(=O)O)C1CC[C@]13C=C(CO)[C@](O)(CCC12)C3 (stereo not given in full),> 100 µM,> 100 µM,> 100 µM,–,–,> 100 µM,> 100 µM,> 100 µM,> 100 µM,> 100 µM,> 100 µM,> 100 µM,–,–,> 100 µM,> 100 µM,> 100 µM,> 100 µM,> 100 µM,> 100 µM
Clc1ccc(-c2nc(-c3c[nH]c4ncccc34)cs2)cc1,> 100 µM,> 100 µM,> 100 µM,–,–,> 100 µM,> 100 µM,> 100 µM,65.8 µM,> 100 µM,> 100 µM,> 100 µM,–,–,> 100 µM,> 100 µM,> 100 µM,> 100 µM,> 100 µM,> 100 µM
CCC1(O)C(=O)OCc2c1cc1n(c2=O)Cc2c-1nc1ccccc1c2OC (stereo not given),2.55 µM,1.8 µM,23.7 µM,> 100 µM,> 100 µM,0.0801 µM,0.205 µM,< 0.0195 µM,–,–,10.8 µM,–,–,–,–,–,–,14.7 µM,–,–
O=C1OCC2=C1C(c1cccc([N+](=O)[O-])c1)c1cc3c(cc1N2CCO)CCC3 (stereo not given),> 50 µM,> 38 µM,> 50 µM,–,–,> 50 µM,3.56 µM,43.3 µM,2.03 µM,0.0928 µM,19.8 µM,0.083 µM,–,–,0.218 µM,0.127 µM,2.8 µM,48 µM,0.254 µM,0.121 µM
C=C1C(=O)O[C@H]2[C@H]1CC/C(COC(=O)NCc1c[nH]c3ccc(OC)cc13)=C\CC[C@@]1(C)O[C@@H]21,11.8 µM,3.28 µM,2.73 µM,–,–,14 µM,2.69 µM,4.74 µM,2.14 µM,3.54 µM,14 µM,1.46 µM,–,–,3.39 µM,1.38 µM,6.27 µM,21.2 µM,1.32 µM,1.34 µM
COC1OC(COCc2ccc(Cl)cc2)C(OCc2ccc(Cl)cc2)C1O (stereo not given),> 100 µM,54.2 µM,32.3 µM,–,34.1 µM,29.1 µM,28.6 µM,66.6 µM,–,–,29.3 µM,–,–,–,–,–,–,30.6 µM,–,–
COc1c(Nc2ncc(Cl)c(N[C@@H]3[C@H]4C=CC(C4)[C@@H]3C(N)=O)n2)ccc2c1CC[C@@H](N1CCOCC1)CC2,23 µM,14.2 µM,15.3 µM,–,–,15.7 µM,19.2 µM,35.5 µM,3.68 µM,4.93 µM,25.2 µM,3.08 µM,–,–,3.2 µM,5.81 µM,3.39 µM,11.9 µM,4.05 µM,3.28 µM
Nc1nn(C(=O)Nc2ccc(Cc3ccccc3)cc2)c2ccc(Cl)cc12,49 µM,> 100 µM,> 100 µM,–,–,29.1 µM,25.8 µM,47 µM,1.48 µM,0.0755 µM,> 100 µM,0.212 µM,–,–,13 µM,0.33 µM,16.5 µM,> 100 µM,4.87 µM,0.0821 µM
CC12Oc3ccc4ccccc4c3C1c1c(ccc3ccccc13)O2 (stereo not given),> 100 µM,> 100 µM,–,> 100 µM,> 100 µM,> 100 µM,> 100 µM,> 100 µM,–,–,> 100 µM,–,–,–,–,–,–,> 100 µM,–,–
O=C(Nc1cccnc1)c1cccs1,> 100 µM,> 100 µM,> 100 µM,–,–,> 100 µM,> 100 µM,> 100 µM,1.11 µM,0.941 µM,> 100 µM,1.4 µM,–,–,1.86 µM,53 µM,> 100 µM,> 100 µM,3.19 µM,0.658 µM
Cn1c(O)c(C=N)c(=O)n(C)c1=O,> 100 µM,> 100 µM,> 100 µM,> 100 µM,> 100 µM,> 100 µM,> 100 µM,> 100 µM,–,–,> 100 µM,–,–,–,–,–,–,> 100 µM,–,–
